Experimental data as given in patent US7045551B2 (Bristol-Myers Squibb Company, priority 2002, dated 2006).
pEC50: −log10 of the molar value.

Columns and labels:
[1] = target: T1, mKCNQ2 channels (Mus musculus, UniProt Q9Z351); assay: Whole-cell patch-clamp recordings of mKCNQ2 currents; type: cell-based; details: for EC50: HEK 293 stable cell line expressing mKCNQ2, @ −40 mV, room temperature; for Imax (%): HEK 293 stable cell line expressing mKCNQ2, Imax from Hill-type curve fit
T1 construct: expressed in transfected cells
Procedure: Whole-cell patch-clamp recordings were made from an HEK 293 stable cell line expressing mKCNQ2 channels, maintained in culture for 1–2 days. Patch pipettes had initial resistances of 2.5–4 MΩ. Currents were recorded with an EPC-9 amplifier (HEKA, Lambrecht, Germany) controlled with software (Pulse, HEKA) run on a standard lab PC. Series resistance compensation was used during current recording, and set at 80%. The series resistance (R) and cell capacitance (C) were determined electronically by subtracting the capacitive currents at the onset and offset of a 5 mV voltage step. The cancellation of whole-cell capacitive transients was virtually complete in all cells. Analog current signals were low-pass filtered at 2.9 kHz using a four-pole Bessel filter −3 dB) and stored on a local network server computer at a sampling rate of […]. All recordings were performed at room temperature (20–22° C.). The pipette solution contained (mM): KCl, 150; CaCl2, 2.5; EGTA, 5; MgCl2, 1; HEPES, 10; pH to 7.3 with KOH, and Osmolality of 290–300 mOsm. The extracellular solution contained (mM): NaCl, 140; KCl, 2.5; CaCl2, 2.5; MgCl2, 1; glucose, 10; HEPES, 10; pH to 7.3 with NaOH, and Osmolality of 305–310 mOsm
Concentration response data were generated by measuring the difference in the steady-state amplitude of current in the presence of compound at the end of a 600 ms voltage-clamp step from a holding potential of −80 mV. The concentration-response data were fitted with Hill-type equations: I=Imax/(1+EC50/[A]^nH), where I is the steady-state current at a given concentration of agonist [A]; and Imax, EC50 and nH are parameters estimated from the curve fit. In some cases the concentration-response data were fitted with equations consisting of the sum of two Hill-type components. Current-voltage (I/V) relationships for agonist-evoked currents were obtained by performing 600 ms voltage steps (−110 mV to +40 mV) in the absence and presence of agonist.

[2] = target: voltage-gated K+ channel KCNQ2 (Homo sapiens, UniProt O43526); assay: Thallium flux assay for openers of KCNQ potassium channels; type: cell-based; details: 10 point concentration series, concentration required to yield 50% of the maximal response
From the text: A thallium flux assay was used to detect and characterize openers of KCNQ potassium channels. The thallium assay is generally described in International application WO 02/31508 published Apr. 18, 2002. More specifically, the thallium influx assay to detect compounds that block or open the voltage-gated K^+ channel KCNQ2 is described in Example IV of the published WO 02/31508 application.
For data analysis, the amplitude of the average of the negative controls was subtracted from all wells. The amplitudes of the test compounds were then compared to the value of four standard deviations of the negative control wells. The lowest concentration of a test compound sufficient to generate a signal amplitude greater than or equal to four standard deviations from the amplitude of the negative controls was defined as the minimal active concentration.
For generating EC50 values, compounds were serially diluted in 1:3 volume increments to produce a 10 point concentration series. EC50 values were calculated by fitting the resulting amplitudes to a single-site logistic equation. EC50 was defined as the concentration of test compound required to yield 50% of the maximal response. Maximal response (Maximal opening) was the largest signal amplitude above the negative control generated by any concentration of a test compound.

| Compound | EC50 [1] | Imax (%) [1] | pEC50 [2] |
| --- | --- | --- | --- |
| O=C(/C=C/c1ccc(F)cc1F)NC(CO)c1cccc(N2CCOCC2)c1 (stereo in doubt) [Example 18, (R)-3-(2,4-Difluoro-phenyl)-N-[2-hydroxy-1-(3-morpho-lin-4-yl-phen-yl)-ethyl]-acrylamide] | 1.46 µM | 820% |  |
| O=C(/C=C/c1cccc(F)c1)N[C@@H](CO)c1ccc2ccccc2c1 [Example 47, (R)-3-(3-Fluoro-phenyl)-N-(2-hy-droxy-1-naphthalen-2-yl-eth-yl)-acrylamide] |  |  | 7.41 |
| O=C(/C=C/c1ccc(F)cc1)N[C@@H](CO)c1ccc2ccccc2c1 [Example 48, (R)-3-(4-Fluoro-phenyl)-N-(2-hy-droxy-1-naphthalen-2-yl-eth-yl)-acrylamide] | 0.619 µM | 981% | 6.30 |
| O=C(/C=C/c1ccccc1)N[C@@H](CO)c1ccc2ccccc2c1 [Example 49] |  |  | 6.45 |

The next lines start with the values.

| EC50 [1] | Imax (%) [1] | pEC50 [2] | Compound |
| --- | --- | --- | --- |
|  |  | 6.84 | O=C(/C=C/c1ccc(F)cc1F)N[C@@H](CO)c1ccc2ccccc2c1 [Example 55, (R)-3-(2,4-Difluoro-phen-yl)-N-(2-hydroxy-1-naph-thalen-2-yl-ethyl)-acryl-amide] |
|  |  | 6.05 | O=C(/C=C/c1ccc(F)c(F)c1)N[C@@H](CO)c1ccc2ccccc2c1 [Example 58, (R)-3-(3,4-Difluoro-phen-yl)-N-(2-hydroxy-1-naph-thalen-2-yl-ethyl)-acryl-amide] |
|  |  | 5.84 | O=C(/C=C/c1ccccc1Cl)N[C@H](c1ccc2ccccc2c1)[C@H](O)CO [Example 106, (1R,2S)-3-(2-Chloro-phenyl)-N-(2,3-dihydroxy-1-naph-thalen-2-yl-propyl)-acryl-amide] |
|  |  | 6.01 | O=C(/C=C/c1ccc(F)cc1F)N[C@H](c1ccc2ccccc2c1)[C@H](O)CO [Example 111, (1R,2S)-3-(2,4-Difluoro-phen-yl)-N-(2,3-dihydroxy-1-naph-thalen-2-yl-propyl)-acryl-amide] |
